The values that follow come from patent US20130225627A1, “DEXTROMETHORPHAN ANTITUSSIVE COMPOSITIONS” (Trinity Laboratories, Inc., priority 2010, published 2013).

The conditions of series [1]: cited from earlier work.
Series [2] is described as follows: Solubility of dextromethorphan hydrochloride in water. The conditions noted are these: at the pH of the compositions of the present invention. The text has this: However, the compositions of the invention may contain sufficient levels of one or more cosolvents. Preferred cosolvents for this purpose include ethanol, propylene glycol, polyethylene glycol, glycerin, and sorbitol; more preferred cosolvents include ethanol, propylene glycol and glycerin.

In series [3] the test system is rats.
For series [4] the following is noted: Ames test; cited from earlier work. (In general: The Ames test uses bacterial strains that need an amino acid and regain growth without it when mutated back.)
The conditions of series [5]: rats, cited from earlier work.
A further series deals with females. To be noted: cited from earlier work; for mean plasma bromide concentration at the end of the treatment: three menstrual cycles.
For series [6] the following is noted: after oral ingestion; cited from earlier work.
Series [7] has as its system rats. The conditions noted are these: cited from earlier work.
The conditions of series [8]: in vivo; cited from earlier work.
For the next series, the system named is thyroid gland. The conditions noted are these: rats, diets containing 4800 or 19200 ppm NaBr; as soon as 3 days, constant during 12 weeks; cited from earlier work.
The subject of the next series is healthy volunteers. The conditions noted are these: cited from earlier work.
Series [9] relates to rats. The conditions noted are these: cited from earlier work. This is another data set of the same source.

One may read the half-life as the time needed for the level to fall by half in the phase considered.

Counter-ions that a name gives are not always drawn. Like-named read-outs stand apart in the source and are kept apart here.

In the case of `COc1ccc2c(c1)[C@]13CCCC[C@@H]1[C@H](C2)N(C)CC3` [Dextromethorphan Hydrobromide], the solubility entry in series [1] (at 20° C.) was “about 1.5 weight percent”; in [1] (at 85° C.), “about 25 wt. %”.

For the compound `COc1ccc2c(c1)[C@]13CCCC[C@@H]1[C@H](C2)N(C)CC3` [Dextromethorphan hydrochloride], the solubility in water result in series [2] is reported as “highly soluble”.

With `Br` [Bromide], the “No Observable Adverse Effect Level (NOAEL), effects on the thyroid” value with rats [3] (equivalent daily dose) worked out at 12 mg bromide/kg/day; with rats [3] (expressed as bromide), 240 ppm. The mutagenicity entry in series [4] is reported as “not mutagenic”. Also, the half-life was 25 days in series [5] (chloride-free diet) and “three” in series [5] (normal). Besides, the “mean plasma bromide concentration at the end of the treatment” value was 3.22 mmol/L in the series with females (4 mg Br/kg/day) and 7.99 mmol/L in the series on females (9 mg Br/kg/day). The “quantitative analysis of the electroencephalogram (EEG)” value in the series on females (9 mg Br/kg/day) was “only a marginal effect”. Further, the “clinical observation: effects on the thyroid or on the central nervous system” value with females (4 and 9 mg Br/kg/day) is given as “did not show effects”. Besides, in the series with females (4 and 9 mg Br/kg/day), the “serum thyroxine, free thyroxine, triiodothyronine, thyrotropin and thyroxine-binding globulin” value is “In none of the three groups were significant changes observed”. The “absorption in the gastrointestinal tract” value in series [6] was “rapidly and completely absorbed”. Besides, the “central nervous system effects” value in the series on rats [7] (short-term toxicity studies, higher doses) is “motor incoordination of the hind legs and inhibition of grooming”. Besides, the half life in [8] was 9 to 12 days.

Take `[Br-].[Na+]` [sodium bromide]: in the series with thyroid gland, the thyroxine concentrations entry is given as “significantly decreased”. Besides, the “neurophysiological data (EEG and visual evoked response)” value in the series on healthy volunteers (9 mg Br/kg/day, within normal limits) was “shifts in the power of various spectral bands and a shift in mean frequency”. Moreover, the “medical history, physical examination, haematology, clinical chemistry and urine analyses” value with healthy volunteers (4 or 9 mg Br/kg/day, start versus end of study) was “Except for incidental nausea, no changes were observed”. Moreover, in the series with healthy volunteers (4 or 9 mg Br/kg/day), the “serum free thyroxine, thyroxine-binding globulin, cortisol, oestradiol, progesterone, testosterone, thyrotropin, prolactin, LH, FSH” value was “No changes were observed”. The “mean plasma bromide concentration at the end of treatment” value was 3.05 mmol/L with healthy volunteers (females, 4 mg Br/kg/day oral, three full cycles); 4.93 mmol/L with healthy volunteers (females, 9 mg Br/kg/day oral, three full cycles); 2.14 millimoles/liter in the series on healthy volunteers (males, 4 mg Br/kg/day oral, 12 weeks); 4.30 millimoles/liter in the series on healthy volunteers (males, 9 mg Br/kg/day oral, 12 weeks). Further, the “serum thyroxine and triiodothyronine at the end of the study compared to pre-administration values” in the series on healthy volunteers (females, 9 mg Br/kg/day, all concentrations within normal limits) is reported as “significant increase”. Moreover, the effects on reproduction result in the series with rats [9] (1200 ppm) is “no effects on reproduction were observed”. Moreover, in the series with rats [9] (4800 ppm), the “fertility and viability of the offspring” value was “reduced”. Besides, in the series on rats [9] (19200 ppm sodium bromide, reversible), the fertility entry was “complete infertility”. The “No Observable Adverse Effect Level (NOAEL), effects on the thyroid” value with rats [7] (expressed as sodium bromide) was 300 ppm. For the same compound, the “levels of thyroxine, growth hormone, testosterone and corticosterone” value in the series with rats [7] (special studies) is recorded as “decreased levels”. In addition, the “thyroid-stimulating hormone (TSH) and insulin” value with rats [7] (special studies) was “increased”.
